# Measurements taken from patent US10406230B2, “Exendin-4 analogue pegylated with polyethylene glycol or derivative thereof, preparation method thereof, and pharmaceutical composition for preventing or treating diabetes, containing same as active ingredient” (priority 2011, dated 2019).
# What was measured:
# [1] = system: Type 2 diabetic C57BL/6 db/db mice; assay: Low blood glucose sustainability in non-fasting type 2 diabetic mice; format: in vivo; settings: 25 nmol/kg intraperitoneal
# Protocol: The following experiment was performed to evaluate low blood glucose sustainability of C40 site specific PEG bound exendin-4 composition according to the present invention in Type 2 diabetic mice.
# Type 2 diabetic C57BL/6 db/db mice (male, 4-5 weeks old, Central Lab. Animal Inc.) were used, and animals were exposed to light at 12 hours cycle and were grown after having stabilized two week by allowing free intake of foods and water. The experimental animals were managed following the guideline of National Institute of Health (NIH) and authorized by Institutional Animal Care and Use Committee of Sungkyunkwan University, and the experiment was performed humanely.
# C40-PEG5K-Ex4 (linear), C40-PEG20K-Ex4 (linear), C40-PEG20K-Ex4 (branch), C40-PEG23K-Ex4 (trimer) and C40-PEG50K-Ex4 (trimer) prepared from the Example 1 to 5 and Lys^27-PEG20K-Ex4 prepared in Comparative example 1b were intraperitoneally injected with 25 nmol/kg dose to male db/db mice (6-7 weeks old), blood was collected from tail vein of mice following the float time: 0, 0.5, 1, 2, 3, 4, 6, 8, 12, 24, 36, 48, 60, 72, 96 hours and blood glucose concentration was measured with ACCU-CHEK Sensor (Roche Diagnostics Corp., USA). Afterwards, the low blood glucose sustaining time (blood glucose level<8.35 mmol/l (150 mg/dL)) was additionally measured and shown in Table 4 and FIG. 12. In the present experiment, exendin-4 was used as the control group.
# [2] = molecular target: T1, GLP-1 receptor (GLP-1R) (Rattus norvegicus, UniProt P32301); assay: RIN-m5F cell receptor binding affinity (I-125 exendin-4 displacement)
# T1 construct: Islet cells (RIN-m5F, ATCC, Manassas, Va.) expressing vast quantity of GLP-1 receptor (GLP-1R) were inoculated in 12-wells plates; host or cells: RIN-m5F
# T1 sequence (P32301 22-463): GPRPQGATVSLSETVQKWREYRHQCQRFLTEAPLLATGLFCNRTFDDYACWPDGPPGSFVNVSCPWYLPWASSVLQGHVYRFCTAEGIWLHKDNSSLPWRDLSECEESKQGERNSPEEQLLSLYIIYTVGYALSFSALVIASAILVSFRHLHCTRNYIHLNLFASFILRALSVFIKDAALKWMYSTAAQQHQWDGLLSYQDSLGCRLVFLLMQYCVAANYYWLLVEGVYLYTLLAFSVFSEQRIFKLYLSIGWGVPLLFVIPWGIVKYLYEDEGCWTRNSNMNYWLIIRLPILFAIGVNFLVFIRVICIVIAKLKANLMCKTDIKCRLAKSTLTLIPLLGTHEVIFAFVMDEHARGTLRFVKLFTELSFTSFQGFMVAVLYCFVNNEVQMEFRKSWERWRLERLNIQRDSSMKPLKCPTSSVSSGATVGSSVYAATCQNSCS
# Protocol: Thorough washing was done with PBS including […] bovine serum albumin after two hours.
Substance,Blood glucose level (average) ([1]; time 0 h),Blood glucose level (average) ([1]; time 0.5 h),Blood glucose level (average) ([1]; time 1 h),Blood glucose level (average) ([1]; time 2 h),Blood glucose level (average) ([1]; time 3 h),Blood glucose level (average) ([1]; time 4 h),Blood glucose level (average) ([1]; time 6 h),Blood glucose level (average) ([1]; time 8 h),Blood glucose level (average) ([1]; time 12 h),Blood glucose level (average) ([1]; time 24 h),Blood glucose level (average) ([1]; time 36 h),Blood glucose level (average) ([1]; time 48 h),Blood glucose level (average) ([1]; time 60 h),"IC50 ([2]; RIN-m5F cells, competition with 30 pM I-125 exendin-4 (9-39), 2 hours)",activity (GLP-1 receptor affinity) better than Comparative example 1a (Lys^12-PEG5K-Ex4) ([2]; ratio of IC50 values),activity (GLP-1 receptor affinity) better than Comparative example 1b (Lys^27-PEG5K-Ex4) ([2]; ratio of IC50 values),activity (GLP-1 receptor affinity) better than Comparative example 2 (Nter-PEG5K-Ex4) ([2]; ratio of IC50 values),low blood glucose sustaining time (time required for blood glucose level increasing back to 8.35 mmol/l) ([1]; blood glucose level<8.35 mmol/l (150 mg/dL)),Blood glucose level (average) ([1]; time 72 h)
1b (Lys^27-PEG20K-Ex4): exendin-4 (SEQ ID NO: 2) PEGylated at Lys27 amine with 20 kDa mPEG-SPA [reference compound],24.13 mmol/L,7.97 mmol/L,6.56 mmol/L,5.24 mmol/L,4.22 mmol/L,4.29 mmol/L,4.85 mmol/L,5.13 mmol/L,5.40 mmol/L,12.98 mmol/L,17.34 mmol/L,20.45 mmol/L,23.02 mmol/L,–,–,–,–,–,–
"Example 1: exendin-4-Cys (cysteine at C-terminal #40 site, SEQ ID NO: 1) bound with linear 5 kDa mPEG-MAL",23.38 mmol/L,7.62 mmol/L,7.36 mmol/L,5.09 mmol/L,4.46 mmol/L,4.93 mmol/L,5.73 mmol/L,9.04 mmol/L,16.2 mmol/L,21.1 mmol/L,–,–,–,1.04 nM,6 times,twice,120 times,–,–
Example 2: exendin-4-Cys (SEQ ID NO: 1) bound at C40 with linear 20 kDa mPEG-MAL,24.28 mmol/L,7.96 mmol/L,6.13 mmol/L,5.29 mmol/L,4.18 mmol/L,4.34 mmol/L,4.9 mmol/L,4.57 mmol/L,5.86 mmol/L,8.54 mmol/L,11.47 mmol/L,15.34 mmol/L,20.45 mmol/L,–,–,–,–,23.2 h,23.02 mmol/L
Example 3: exendin-4-Cys (SEQ ID NO: 1) bound at C40 with branch type 20 kDa mPEG-MAL,24.44 mmol/L,7.86 mmol/L,6.89 mmol/L,5.04 mmol/L,4.15 mmol/L,4.66 mmol/L,4.67 mmol/L,5.11 mmol/L,7.89 mmol/L,15.09 mmol/L,20.14 mmol/L,24.21 mmol/L,23.76 mmol/L,–,–,–,–,–,–
